According to paper PMC4742234, “Screening of Drug Metabolizing Enzymes for the Ginsenoside Compound K In Vitro: An Efficient Anti-Cancer Substance Originating from Panax Ginseng” (PLoS ONE, 2016):
Entries after “also recorded” stand apart in the source; their conditions may differ.

Assays:
CYP2A6 = biological target: T1, CYP2A6 (Homo sapiens, UniProt P11509); experiment: Inhibition of CYP2A6 (coumarin 7-hydroxylation) by CK in HLMs; assay type: in vitro ADME
T1 construct: tissue Cypex Ltd. (U.K.); host or cells: pooled human liver microsomes
T1 sequence (P11509 1-494): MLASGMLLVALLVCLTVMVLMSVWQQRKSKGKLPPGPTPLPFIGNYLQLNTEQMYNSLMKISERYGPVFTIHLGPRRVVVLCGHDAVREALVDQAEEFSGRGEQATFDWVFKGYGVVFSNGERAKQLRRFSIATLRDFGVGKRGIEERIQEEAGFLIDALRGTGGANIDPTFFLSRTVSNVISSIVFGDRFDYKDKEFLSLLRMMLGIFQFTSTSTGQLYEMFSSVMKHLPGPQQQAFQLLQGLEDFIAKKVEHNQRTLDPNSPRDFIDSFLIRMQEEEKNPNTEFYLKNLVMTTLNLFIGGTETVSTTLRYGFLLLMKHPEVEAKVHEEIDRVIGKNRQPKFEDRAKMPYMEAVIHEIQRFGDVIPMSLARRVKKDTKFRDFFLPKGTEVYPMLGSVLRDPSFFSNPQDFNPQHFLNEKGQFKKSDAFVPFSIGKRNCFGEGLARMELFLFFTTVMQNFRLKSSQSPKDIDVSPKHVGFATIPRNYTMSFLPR
Procedure: (§1) The method was conducted according to our previous study with some modifications. The CYP isoform-specific probe reactions used were phenacetin O-deethylation (for CYP1A2), coumarin 7-hydroxylation (for CYP2A6), tolbutamide 4-hydroxylation (for CYP2C9), metoprolol α-hydroxylation (for CYP2D6), chlorzoxazone 6-hydroxylation (for CYP2E1),S-Mephenytoin 4-hydroxylation (for CYP2C19), and midazolam 1-hydroxylation (for CYP3A4). The kinetic study of CK was conducted with HLMs. A 0.2 mL incubation mixture that consisted of CK (as a substrate), the HLMs (0.5 mg/mL) or CYP isoforms (10 pmol), and 0.1 M sodium phosphate buffer (pH 7.4) was pre-warmed for 5 min at 37°C. The reaction was initiated by the addition of 1 mg/mL triphosphopyridine nucleotide (NADPH). All the reagents were dissolved in methanol, and the final solvent concentration in all incubations (including the controls) was 1%. The final incubations were performed in a shaking water bath (37°C) for 30 min. The reactions were stopped by adding 0.2 mL ice-cold acetonitrile, which contains irbesartan (114.9 ng/mL) as the internal standard. The samples were vortexed for 5 min. After centrifugation (12000×g for 10 min), the supernatants were transferred, and aliquots of 20 μL were injected into the HPLC-MS/MS system for analysis.
(§2) CK (10–100 μM) and a single CYP isoform-specific substrate (with a concentration similar to its corresponding Kmvalue) were used to determine the inhibitory effect of CK on specific CYP isoforms as described in detail previously. Substrates including phenacetin, coumarin, tolbutamide, metoprolol, chlorzoxazone, S-Mephenytoin, and midazolam were used at concentrations of 10, 5, 100, 7.5, 40, 100, and 5 μM, respectively. All incubation conditions were the same as mentioned above. The inhibitory effects on the CYP isoforms were investigated individually by incubating the HLMs in the absence or presence of CK. […]

CYP2C19 = biological target: T2, CYP2C19 (Homo sapiens, UniProt P33261); experiment: Inhibition of CYP2C19 (S-Mephenytoin 4-hydroxylation) by CK in HLMs; assay type: in vitro ADME
T2 construct: tissue Cypex Ltd. (U.K.); host or cells: pooled human liver microsomes
Procedure: as §1, §2

[1] = classified by IC50 according to Kong et al

T2 sequence (P33261 whole entry): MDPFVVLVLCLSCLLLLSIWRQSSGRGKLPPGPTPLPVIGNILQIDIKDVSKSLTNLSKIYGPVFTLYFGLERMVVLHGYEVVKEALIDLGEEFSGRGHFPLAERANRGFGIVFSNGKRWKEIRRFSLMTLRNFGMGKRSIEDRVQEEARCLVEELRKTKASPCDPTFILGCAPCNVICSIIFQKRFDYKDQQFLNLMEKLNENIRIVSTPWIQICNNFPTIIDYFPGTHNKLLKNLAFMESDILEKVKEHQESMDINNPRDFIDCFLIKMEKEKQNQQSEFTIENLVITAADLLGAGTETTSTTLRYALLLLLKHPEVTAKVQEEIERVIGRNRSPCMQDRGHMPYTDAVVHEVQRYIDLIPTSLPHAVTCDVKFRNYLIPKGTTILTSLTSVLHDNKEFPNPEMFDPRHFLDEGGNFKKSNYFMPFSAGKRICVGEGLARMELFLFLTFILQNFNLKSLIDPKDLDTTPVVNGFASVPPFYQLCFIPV

## CC(C)=CCC[C@](C)(OC1O[C@H](CO)[C@@H](O)[C@H](O)[C@H]1O)[C@H]1CC[C@]2(C)[C@@H]1[C@H](O)C[C@@H]1[C@@]3(C)CC[C@H](O)C(C)(C)[C@@H]3CC[C@]12C (stereo partly drawn) [CK, 20-O-β-(D-glucopyranosyl)-20(S)-protopanaxadiol]
CYP2A6; HLMs, CK 10–100 μM
  inhibitory effect on the activity of CYP2A6: minimal; also recorded: negligible
CYP2A6; HLMs, coumarin 5 μM, CK 10–100 μM
  IC50: > 100 µM
CYP2A6; [1]
  inhibitor potency class for CYP2A6: weak (weak, if IC50≥100 μg/mL or ≥50 μM)
CYP2C19; HLMs, CK 10–100 μM
  inhibitory effect on the activity of CYP2C19: minimal; also recorded: negligible
CYP2C19; HLMs, S-Mephenytoin 100 μM, CK 10–100 μM
  IC50: > 100 µM
CYP2C19; [1]
  inhibitor potency class for CYP2C19: weak (weak, if IC50≥100 μg/mL or ≥50 μM)
